Reference: DBAASP
Values after ≈ are worked out from the molar mass of the structure shown.

Assays:
Experiment in all cases: ≥ marks a high value that may be exact or a test limit, other limits are often not marked, values filed in µg/mL are converted to µM
[1] = tested on: Bordetella bronchiseptica CUN 11844-99
[2] = tested on: Escherichia coli ATCC 25922
[3] = tested on: Pseudomonas aeruginosa CUN 4158-02
[4] = tested on: Staphylococcus aureus ATCC 25923
[5] = tested on: Bacillus megaterium ATCC 10778
Candida albicans MDM8 = tested on: Candida albicans MDM8
[6] = tested on: Candida tropicalis IOC 4560
[7] = tested on: Enterobacter cloacae beta-12
Escherichia coli SBS 363 = tested on: Escherichia coli SBS 363
Micrococcus luteus A270 = tested on: Micrococcus luteus A270
[8] = tested on: Serratia marcescens ATCC 4112
[9] = tested on: Staphylococcus aureus ATCC 29213
[10] = tested on: Staphylococcus epidermidis ATCC 12228
[11] = tested on: Lacticaseibacillus casei ATCC 4646
[12] = tested on: Pseudomonas aeruginosa PAK
Staphylococcus aureus = tested on: Staphylococcus aureus
[13] = tested on: Streptococcus gordonii Challis DL1
[14] = tested on: Streptococcus mitis ATCC 903
Streptococcus mutans = tested on: Streptococcus mutans
[15] = tested on: Streptococcus sanguinis NY101
[16] = tested on: Veillonella atypica PK1910
Fusarium oxysporum = tested on: Fusarium oxysporum
Micrococcus luteus = tested on: Micrococcus luteus
Acinetobacter baumannii = tested on: Acinetobacter baumannii
[17] = tested on: Bacillus cereus CGMCC 1.932
[18] = tested on: Bacillus subtilis CMCC 63501
[19] = tested on: Enterococcus faecalis ATCC 29212
Escherichia coli 078 = tested on: Escherichia coli 078
Escherichia coli K88 = tested on: Escherichia coli K88
Escherichia coli K99 = tested on: Escherichia coli K99
Escherichia coli UB1005 = tested on: Escherichia coli UB1005
[20] = tested on: Listeria monocytogenes CGMCC 1.1075
[21] = tested on: Pseudomonas aeruginosa ATCC 27853
[22] = tested on: Pseudomonas aeruginosa PAO1
[23] = tested on: Salmonella enterica subsp. enterica serovar Pullorum ATCC 7913
[24] = tested on: Salmonella enterica subsp. enterica serovar Typhimurium ATCC 14028
[25] = tested on: Salmonella typhimurium ATCC 7731
[26] = tested on: Staphylococcus aureus ATCC 43300
[27] = tested on: Mannheimia haemolytica 82-25

| SMILES | MIC [4] | MIC [10] | MIC (Acinetobacter baumannii) | MIC [17] | MIC [18] | MIC [19] | MIC (Escherichia coli 078) | MIC (Escherichia coli K88) | MIC (Escherichia coli K99) | MIC (Escherichia coli UB1005) | MIC [20] | MIC [21] | MIC [22] | MIC [23] | MIC [24] | MIC [25] | MIC [26] | other results |
| --- | --- | --- | --- | --- | --- | --- | --- | --- | --- | --- | --- | --- | --- | --- | --- | --- | --- | --- |
| CC(C)C[C@H](NC(=O)CNC(=O)[C@H](CCCCN)NC(=O)[C@H](Cc1ccccc1)NC(=O)[C@H](CCCCN)NC(=O)[C@H](Cc1c[nH]c2ccccc12)NC(=O)[C@H](CCCN=C(N)N)NC(=O)[C@H](Cc1ccccc1)NC(=O)[C@H](CCCN=C(N)N)NC(=O)[C@H](CCCN=C(N)N)NC(=O)[C@H](Cc1ccc(O)cc1)NC(=O)[C@H](CCCCN)NC(=O)[C@H](CCCCN)NC(=O)CN)C(=O)N[C@@H](Cc1ccccc1)C(=O)N[C@@H](CC(C)C)C(=O)N[C@@H](Cc1ccccc1)C(=O)N[C@@H](CC(C)C)C(=O)NCC(N)=O [GKKYRRFRWKFKGLFLFLG] | 26.1 µM (≈ 64 µg/mL) |  |  |  |  |  |  |  |  |  |  |  |  |  |  |  |  | MIC [1]: 6.54 µM (≈ 16 µg/mL); MIC [2]: 26.1 µM (≈ 64 µg/mL); MIC [3]: 26.1 µM (≈ 64 µg/mL) |
| CC(C)C[C@H](NC(=O)[C@H](C)NC(=O)[C@H](CCCCN)NC(=O)[C@H](CC(C)C)NC(=O)[C@@H](N)Cc1ccccc1)C(=O)N[C@@H](Cc1c[nH]c2ccccc12)C(=O)N[C@@H](CCCCN)C(=O)N[C@H](C(=O)N[C@@H](C)C(=O)N[C@@H](CCCCN)C(=O)N[C@@H](CCCCN)C(=O)N[C@H](C(=O)N[C@@H](Cc1ccccc1)C(N)=O)C(C)C)C(C)C [FLKALWKVAKKVF] |  | 3.1 µM (≈ 4.89 µg/mL) |  |  |  |  |  |  |  |  |  |  |  |  |  |  |  | MIC [5]: 0.4 µM (≈ 0.631 µg/mL); MIC (Candida albicans MDM8): 1.6 µM (≈ 2.52 µg/mL); MIC [6]: 0.8 µM (≈ 1.26 µg/mL); MIC [7]: 3.1 µM (≈ 4.89 µg/mL); MIC (Escherichia coli SBS 363): 1.6 µM (≈ 2.52 µg/mL); MIC (Micrococcus luteus A270): 0.4 µM (≈ 0.631 µg/mL); MIC [8]: 0.1 µM (≈ 0.158 µg/mL); MIC [9]: 0.8 µM (≈ 1.26 µg/mL) |
| CC[C@H](C)[C@H](N)C(=O)N[C@@H](CCCCN)C(=O)N[C@@H](CCC(N)=O)C(=O)N[C@@H](CC(C)C)C(=O)N[C@@H](CC(C)C)C(=O)N[C@@H](Cc1cnc[nH]1)C(=O)N[C@@H](Cc1ccccc1)C(=O)N[C@@H](Cc1ccccc1)C(=O)N[C@@H](CCC(N)=O)C(=O)N[C@@H](CCCN=C(N)N)C(=O)N[C@@H](Cc1ccccc1)C(N)=O [IKQLLHFFQRF] |  |  |  |  |  |  |  |  |  |  |  |  |  |  |  |  |  | MIC [11]: 21.7 µM (≈ 32 µg/mL); MIC [12]: ≥ 42.3 µM; MIC (Staphylococcus aureus): 42.3 µM (≈ 62.5 µg/mL); MIC [13]: 21.7 µM (≈ 32 µg/mL); MIC [14]: ≥ 42.8 µM; MIC (Streptococcus mutans): 16.3 µM (≈ 24 µg/mL); MIC [15]: ≥ 42.8 µM; MIC [16]: ≥ 43.3 µM |
| CC[C@H](C)[C@H](NC(=O)[C@@H]1CCCN1C(=O)[C@H](CC(C)C)NC(=O)[C@H](Cc1ccc(O)cc1)NC(=O)[C@H](CCCCN)NC(=O)[C@H](CCCCN)NC(=O)[C@H](CC(C)C)NC(=O)[C@H](C)NC(=O)[C@H](CO)NC(=O)[C@H](CC(C)C)NC(=O)[C@H](Cc1ccccc1)NC(=O)CN)C(=O)N[C@H](C(=O)N[C@@H](CC(C)C)C(=O)N[C@@H](CCCCN)C(=O)N[C@@H](Cc1cnc[nH]1)C(=O)N[C@H](C(=O)O)C(C)C)C(C)C [GFLSALKKYLPIVLKHV] |  |  |  |  |  |  |  |  |  |  |  |  |  |  |  |  |  | MIC (Escherichia coli SBS 363): 3.12 µM (≈ 6.02 µg/mL); MIC (Fusarium oxysporum): 0.78 µM (≈ 1.5 µg/mL); MIC (Micrococcus luteus): 1.56 µM (≈ 3.01 µg/mL) |
| C[C@H](N)C(=O)N[C@@H](CC(=O)O)C(=O)N[C@@H](CC(=O)O)C(=O)N[C@@H](CC(=O)O)C(=O)N[C@@H](CC(=O)O)C(=O)N[C@@H](CC(=O)O)C(=O)N[C@@H](CC(=O)O)C(=O)O [ADDDDDD] |  |  |  |  |  |  |  |  |  |  |  |  |  |  |  |  |  | MIC [27]: ≥ 50 µM |
| NCC(=O)N[C@@H](CC(=O)O)C(=O)N[C@@H](CC(=O)O)C(=O)N[C@@H](CC(=O)O)C(=O)N[C@@H](CC(=O)O)C(=O)N[C@@H](CC(=O)O)C(=O)N[C@@H](CC(=O)O)C(=O)O [GDDDDDD] |  |  |  |  |  |  |  |  |  |  |  |  |  |  |  |  |  | MIC [27]: ≥ 60 µM |
| NC(=O)[C@H](Cc1ccccc1)NC(=O)[C@H](Cc1c[nH]c2ccccc12)NC(=O)[C@H](Cc1c[nH]c2ccccc12)NC(=O)[C@H](Cc1c[nH]c2ccccc12)NC(=O)[C@H](CCCN=C(N)N)NC(=O)[C@H](CCCN=C(N)N)NC(=O)[C@@H](N)CCCN=C(N)N [RRRWWWF] |  |  |  |  |  |  |  |  |  |  |  |  |  |  |  |  |  | MIC [11]: 13.4 µM (≈ 16 µg/mL); MIC [13]: 26.8 µM (≈ 32 µg/mL); MIC [14]: 26.8 µM (≈ 32 µg/mL); MIC (Streptococcus mutans): 4.74 µM (≈ 5.65 µg/mL); MIC [15]: 13.4 µM (≈ 16 µg/mL); MIC [16]: ≥ 53.7 µM |

Further lines, with some results ahead:

| MIC [4] | MIC [10] | MIC (Acinetobacter baumannii) | MIC [17] | MIC [18] | MIC [19] | MIC (Escherichia coli 078) | MIC (Escherichia coli K88) | MIC (Escherichia coli K99) | MIC (Escherichia coli UB1005) | MIC [20] | MIC [21] | MIC [22] | MIC [23] | MIC [24] | MIC [25] | MIC [26] | SMILES | other results |
| --- | --- | --- | --- | --- | --- | --- | --- | --- | --- | --- | --- | --- | --- | --- | --- | --- | --- | --- |
| 4 µM (≈ 6.69 µg/mL) | 4 µM (≈ 6.69 µg/mL) | 2 µM (≈ 3.34 µg/mL) | 16 µM (≈ 26.8 µg/mL) | 4 µM (≈ 6.69 µg/mL) | 4 µM (≈ 6.69 µg/mL) | 4 µM (≈ 6.69 µg/mL) | 4 µM (≈ 6.69 µg/mL) | 8 µM (≈ 13.4 µg/mL) | 8 µM (≈ 13.4 µg/mL) | 1 µM (≈ 1.67 µg/mL) | 16 µM (≈ 26.8 µg/mL) | 16 µM (≈ 26.8 µg/mL) | 4 µM (≈ 6.69 µg/mL) | 8 µM (≈ 13.4 µg/mL) | 8 µM (≈ 13.4 µg/mL) | 4 µM (≈ 6.69 µg/mL) | CC(C)[C@H](NC(=O)[C@H](CCCN=C(N)N)NC(=O)[C@H](Cc1c[nH]c2ccccc12)NC(=O)[C@H](CCCN=C(N)N)NC(=O)[C@H](Cc1c[nH]c2ccccc12)NC(=O)[C@H](Cc1c[nH]c2ccccc12)NC(=O)[C@H](Cc1c[nH]c2ccccc12)NC(=O)[C@H](CCCN=C(N)N)NC(=O)[C@H](Cc1c[nH]c2ccccc12)NC(=O)[C@@H](N)CCCN=C(N)N)C(N)=O [RWRWWWRWRV] |  |
| 2 µM (≈ 3.52 µg/mL) | 2 µM (≈ 3.52 µg/mL) | 2 µM (≈ 3.52 µg/mL) | 4 µM (≈ 7.04 µg/mL) | 8 µM (≈ 14.1 µg/mL) | 4 µM (≈ 7.04 µg/mL) | 2 µM (≈ 3.52 µg/mL) | 2 µM (≈ 3.52 µg/mL) | 8 µM (≈ 14.1 µg/mL) | 4 µM (≈ 7.04 µg/mL) | 1 µM (≈ 1.76 µg/mL) | 32 µM (≈ 56.3 µg/mL) | 4 µM (≈ 7.04 µg/mL) | 4 µM (≈ 7.04 µg/mL) | 8 µM (≈ 14.1 µg/mL) | 8 µM (≈ 14.1 µg/mL) | 2 µM (≈ 3.52 µg/mL) | NC(=O)[C@H](Cc1c[nH]c2ccccc12)NC(=O)[C@H](CCCN=C(N)N)NC(=O)[C@H](Cc1c[nH]c2ccccc12)NC(=O)[C@H](CCCN=C(N)N)NC(=O)[C@H](Cc1c[nH]c2ccccc12)NC(=O)[C@H](Cc1c[nH]c2ccccc12)NC(=O)[C@H](Cc1c[nH]c2ccccc12)NC(=O)[C@H](CCCN=C(N)N)NC(=O)[C@H](Cc1c[nH]c2ccccc12)NC(=O)[C@@H](N)CCCN=C(N)N [RWRWWWRWRW] |  |
| 2 µM (≈ 3.49 µg/mL) | 4 µM (≈ 6.97 µg/mL) | 2 µM (≈ 3.49 µg/mL) | 8 µM (≈ 13.9 µg/mL) | 4 µM (≈ 6.97 µg/mL) | 2 µM (≈ 3.49 µg/mL) | 4 µM (≈ 6.97 µg/mL) | 4 µM (≈ 6.97 µg/mL) | 8 µM (≈ 13.9 µg/mL) | 8 µM (≈ 13.9 µg/mL) | 1 µM (≈ 1.74 µg/mL) | 8 µM (≈ 13.9 µg/mL) | 8 µM (≈ 13.9 µg/mL) | 2 µM (≈ 3.49 µg/mL) | 4 µM (≈ 6.97 µg/mL) | 16 µM (≈ 27.9 µg/mL) | 4 µM (≈ 6.97 µg/mL) | CC[C@H](C)[C@H](NC(=O)[C@H](CCCN=C(N)N)NC(=O)[C@H](Cc1c[nH]c2ccccc12)NC(=O)[C@H](CCCN=C(N)N)NC(=O)[C@H](Cc1c[nH]c2ccccc12)NC(=O)[C@H](Cc1c[nH]c2ccccc12)NC(=O)[C@H](Cc1c[nH]c2ccccc12)NC(=O)[C@H](CCCN=C(N)N)NC(=O)[C@H](Cc1c[nH]c2ccccc12)NC(=O)[C@H](CCCN=C(N)N)NC(=O)CN)C(N)=O [GRWRWWWRWRI] |  |
